Measurements: patent publication US20090111778A1, “2-Keto-Oxazoles as Modulators of Fatty Acid Amide Hydrolase” (priority 2005, published 2009)

Assays:
human FAAH = target: T1, human FAAH (Homo sapiens, UniProt O00519); assay: Assay Method 1: FAAH assay, hydrolysis of 3H-anandamide by homogenate of SK-N-MC cells transfected with human FAAH; assay type: biochemical; conditions: human FAAH; T84 or transfected SK-N-MC cell homogenate; 3H-AEA tracer 80 nM; rt 1 h; pH 9; read-out: Assay 1 IC50
T1 construct: expressed in transfected cells
T1 sequence (O00519 1-579): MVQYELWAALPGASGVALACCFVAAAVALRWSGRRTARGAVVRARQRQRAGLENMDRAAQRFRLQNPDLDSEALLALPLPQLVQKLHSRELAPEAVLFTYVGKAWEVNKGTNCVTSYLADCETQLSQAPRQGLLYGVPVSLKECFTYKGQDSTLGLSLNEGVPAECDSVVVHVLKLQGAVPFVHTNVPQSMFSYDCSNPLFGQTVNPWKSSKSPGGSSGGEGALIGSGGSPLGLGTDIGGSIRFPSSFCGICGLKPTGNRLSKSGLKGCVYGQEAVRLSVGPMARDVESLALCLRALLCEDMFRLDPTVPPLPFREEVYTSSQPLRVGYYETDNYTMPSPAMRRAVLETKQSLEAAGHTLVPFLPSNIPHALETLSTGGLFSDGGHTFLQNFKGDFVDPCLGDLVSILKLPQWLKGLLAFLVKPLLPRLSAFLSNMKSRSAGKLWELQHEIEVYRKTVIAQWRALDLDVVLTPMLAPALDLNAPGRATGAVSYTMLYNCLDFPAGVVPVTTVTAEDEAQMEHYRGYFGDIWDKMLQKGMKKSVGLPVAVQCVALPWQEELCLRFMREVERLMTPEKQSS
Method: A. Transfection of Cells with Human FAAH
(§1) A 10-cm tissue culture dish with a confluent monolayer of SK-N-MC cells was split 2 days (d) prior to transfection. Using sterile technique, the media was removed and the cells were detached from the dish by the addition of trypsin. One fifth of the cells were then placed onto a new 10-cm dish. Cells were grown in a 37° C. incubator with 5% CO2 in Minimal Essential Media Eagle with 10% Fetal Bovine Serum. After 2 d, cells were approximately 80% confluent. These cells were removed from the dish with trypsin and pelleted in a clinical centrifuge. The pellet was re-suspended in 400 μL complete media and transferred to an electroporation cuvette with a 0.4 cm gap between the electrodes. Supercoiled human FAAH cDNA (1 μg) was added to the cells and mixed. The voltage for the electroporation was set at 0.25 kV, and the capacitance was set at 960 μF. After electroporation, the cells were diluted into complete media (10 mL) and plated onto four 10-cm dishes. Because of the variability in the efficiency of electroporation, four different concentrations of cells were plated. The ratios used were 1:20, 1:10, and 1:5, with the remainder of the cells being added to the fourth dish. The cells were allowed to recover for 24 h before adding the selection media (complete media with 600 μg/mL G418). After 10 d, dishes were analyzed for surviving colonies of cells. Dishes with well-isolated colonies were used. Cells from individual colonies were isolated and tested.
The assay mixture consisted of […] of the cell homogenate, 10 μL of the test compound, and 40 μL of anandamide [1-^3H-ethanolamine] (3H-AEA, Perkin-Elmer, 10.3 Ci/mmol), which was added last, for a final tracer concentration of 80 nM. The reaction mixture was incubated at rt for 1 h. During the incubation, 96-well Multiscreen filter plates (catalog number MAFCNOB50; Millipore, Bedford, Mass., USA) were loaded with 25 μL of activated charcoal (Multiscreen column loader, catalog number MACL09625, Millipore) and washed once with 100 μL of MeOH. Also during the incubation, 96-well DYNEX MicroLite plates (catalog number NL510410) were loaded with 100 μL of MicroScint40 (catalog number 6013641, Packard Bioscience, Meriden, Conn., USA). After the 1 h incubation, 60 μL of the reaction mixture were transferred to the charcoal plates, which were then assembled on top of the DYNEX plates using Centrifuge Alignment Frames (catalog number MACF09604, Millipore). The unbound labeled ethanolamine was centrifuged through to the bottom plate (5 min at 2000 rpm), which was preloaded with the scintillant, as described above. The plates were sealed and left at rt for 1 h before counting on a Hewlett Packard TopCount.

rat FAAH = target: T2, rat FAAH (Rattus norvegicus, UniProt P97612); assay: Assay Method 2: FAAH assay, hydrolysis of 3H-anandamide by homogenate of SK-N-MC cells transfected with rat FAAH; assay type: biochemical; conditions: T84 or transfected SK-N-MC cell homogenate, 3H-AEA tracer 80 nM, rt 1 h, pH 9
T2 construct: expressed in transfected cells
T2 sequence (P97612 1-579): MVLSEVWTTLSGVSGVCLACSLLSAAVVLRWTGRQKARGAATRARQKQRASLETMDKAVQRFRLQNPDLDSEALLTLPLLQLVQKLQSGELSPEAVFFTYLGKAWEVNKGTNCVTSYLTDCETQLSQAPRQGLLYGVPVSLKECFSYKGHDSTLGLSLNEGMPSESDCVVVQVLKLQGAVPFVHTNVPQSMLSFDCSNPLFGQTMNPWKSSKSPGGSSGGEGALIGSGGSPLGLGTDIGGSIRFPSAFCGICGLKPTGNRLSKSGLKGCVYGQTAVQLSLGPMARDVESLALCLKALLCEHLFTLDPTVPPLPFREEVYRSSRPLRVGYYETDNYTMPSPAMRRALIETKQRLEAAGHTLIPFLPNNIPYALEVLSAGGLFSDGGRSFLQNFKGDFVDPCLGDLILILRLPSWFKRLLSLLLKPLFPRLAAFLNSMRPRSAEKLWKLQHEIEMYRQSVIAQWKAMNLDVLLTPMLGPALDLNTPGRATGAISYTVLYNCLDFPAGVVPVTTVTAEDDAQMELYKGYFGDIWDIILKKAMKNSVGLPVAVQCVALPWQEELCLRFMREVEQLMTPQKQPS
Method: as §1, with “A. Transfection of Cells with Rat FAAH A 10-cm” for “A 10-cm”, “electrodes. Supercoiled rat FAAH cDNA” for “electrodes. Supercoiled human FAAH cDNA”, “and tested. […] B. FAAH Assay […] The reaction mixture was incubated at rt for 1 h. During the incubation, 96-well Multiscreen filter plates (catalog number MAFCNOB50; Millipore, Bedford, Mass., USA) were loaded with 25 μL of activated charcoal (Multiscreen column loader, catalog number MACL09625, Millipore) and washed once with 100 μL of MeOH. Also during the incubation, 96-well DYNEX MicroLite plates (catalog number NL510410) were loaded with 100 μL of MicroScint40 (catalog number 6013641, Packard Bioscience, Meriden, Conn., USA). After the 1 h incubation, 60 μL of the reaction mixture were transferred to the charcoal plates, which were then assembled on top of the DYNEX plates using Centrifuge Alignment Frames (catalog number MACF09604, Millipore). The unbound labeled ethanolamine was centrifuged through to the bottom plate (5 min at 2000 rpm), which was preloaded with the scintillant, as described above. The plates were sealed and left at rt for 1 h before counting on a Hewlett Packard TopCount.” for “and tested.”

IC50 (human FAAH) [µM]	IC50 (rat FAAH) [µM]	SMILES
0.008	0.009	O=C(CCCC1CCN(Cc2ccc3ccccc3c2)CC1)c1ncco1 [Example 20, 4-(1-Naphthalen-2-ylmethyl-piperidin-4-yl)-1-oxazol-2-yl-butan-1-one]
0.029	0.086	O=C(CCCC1CCN(Cc2cnc3ccccc3c2)CC1)c1ncco1 [Example 21, 1-Oxazol-2-yl-4-(1-quinolin-3-ylmethyl-piperidin-4-yl)-butan-1-one]
0.003	0.005	CC(C)c1ccc(CN2CCC(CCCC(=O)c3ncco3)CC2)cc1 [Example 22, 4-[1-(4-Isopropyl-benzyl)-piperidin-4-yl]-1-oxazol-2-yl-butan-1-one]
0.4	0.9	CC(C)CC(=O)N1CCC(CCCC(=O)c2ncco2)CC1 [Example 26, 3-Methyl-1-[4-(4-oxazol-2-yl-4-oxo-butyl)-piperidin-1-yl]-butan-1-one]
0.067	0.563	O=C(CCCC1CCN(C(=O)c2ccccc2)CC1)c1ncco1 [Example 28, 4-(1-Benzoyl-piperidin-4-yl)-1-oxazol-2-yl-butan-1-one]
0.106	0.288	O=C(CCCC1CCN(C(=O)C2CCCC2)CC1)c1ncco1 [Example 31, 4-(1-Cyclopentanecarbonyl-piperidin-4-yl)-1-oxazol-2-yl-butan-1-one]
0.028	0.112	O=C(CCCC1CCN(C(=O)CCC2CCCC2)CC1)c1ncco1 [Example 32, 4-[1-(3-Cyclopentyl-propionyl)-piperidin-4-yl]-1-oxazol-2-yl-butan-1-one]
0.848	0.889	O=C(CCCC1CCN(C(=O)COc2ccccc2)CC1)c1ncco1 [Example 33, 1-Oxazol-2-yl-4-[1-(2-phenoxy-acetyl)-piperidin-4-yl]-butan-1-one]
0.24	0.25	O=C(CCCC1CCN(C(=O)COCc2ccccc2)CC1)c1ncco1 [Example 34, 4-[1-(2-Benzyloxy-acetyl)-piperidin-4-yl]-1-oxazol-2-yl-butan-1-one]
0.019	0.038	O=C(CCCC1CCN(C(=O)COc2ccc(Cl)cc2)CC1)c1ncco1 [Example 35, 4-{1-[2-(4-Chloro-phenoxy)-acetyl]-piperidin-4-yl}-1-oxazol-2-yl-butan-1-one]
0.046	0.056	O=C(CCCC1CCN(C(=O)CCc2ccccc2)CC1)c1ncco1 [Example 36, 1-Oxazol-2-yl-4-[1-(3-phenyl-propionyl)-piperidin-4-yl]-butan-1-one]
0.022	0.018	O=C(CCCC1CCN(C(=O)CCc2ccc(Oc3ccccc3)cc2)CC1)c1ncco1 [Example 37, 1-Oxazol-2-yl-4-{1-[3-(4-phenoxy-phenyl)-propionyl]-piperidin-4-yl}-butan-1-one]
0.1	0.1	Cc1ccc(CC(=O)N2CCC(CCCC(=O)c3ncco3)CC2)cc1 [Example 38, 1-Oxazol-2-yl-4-[1-(2-p-tolyl-acetyl)-piperidin-4-yl]-butan-1-one]

SMILES	IC50 (human FAAH) [µM]	IC50 (rat FAAH) [µM]
Cc1ccc(CN2CCC(CCCC(=O)c3ncco3)CC2)cc1 [Example 18, 4-[1-(4-Methyl-benzyl)-piperidin-4-yl]-1-oxazol-2-yl-butan-1-one]	0.4	1
Cc1cccc(CN2CCC(CCCC(=O)c3ncco3)CC2)c1 [Example 19, 4-[1-(3-Methyl-benzyl)-piperidin-4-yl]-1-oxazol-2-yl-butan-1-one]	0.09	0.305
CC(C)Oc1ccc(CN2CCC(CCCC(=O)c3ncco3)CC2)cc1 [Example 23, 4-[1-(4-isopropoxy-benzyl)-piperidin-4-yl]-1-oxazol-2-yl-butan-1-one]	0.014	0.031
CC(C)(C)Oc1ccc(CN2CCC(CCCC(=O)c3ncco3)CC2)cc1 [Example 24, 4-[1-(4-tert-Butoxy-benzyl)-piperidin-4-yl]-1-oxazol-2-yl-butan-1-one]	0.032	0.018
CC(C)(C)CC(=O)N1CCC(CCCC(=O)c2ncco2)CC1 [Example 25, 3,3-Dimethyl-1-[4-(4-oxazol-2-yl-4-oxo-butyl)-piperidin-1-yl]-butan-1-one]	0.09	0.32
O=C(CCCC1CCN(C(=O)Cc2ccccc2)CC1)c1ncco1 [Example 27, 1-Oxazol-2-yl-4-(1-phenylacetyl-piperidin-4-yl)-butan-1-one]	0.5	1.3
O=C(CCCC1CCN(C(=O)C2CCCCC2)CC1)c1ncco1 [Example 29, 4-(1-Cyclohexanecarbonyl-piperidin-4-yl)-1-oxazol-2-yl-butan-1-one]	0.045	0.18
CC(C)C(=O)N1CCC(CCCC(=O)c2ncco2)CC1 [Example 30, 4-(1-Isobutyryl-piperidin-4-yl)-1-oxazol-2-yl-butan-1-one]	0.25	2.25
